Experimental data as given in PMC9848371, “Synthesis, kinetic studies and in-silico investigations of novel quinolinyl-iminothiazolines as alkaline phosphatase inhibitors” (Journal of Enzyme Inhibition and Medicinal Chemistry, 2023).
Entries after “also recorded” stand apart in the source; their conditions may differ.

What was measured:
[1] = molecular target: T1, calf intestinal alkaline phosphatase (Bos taurus, UniProt P19111); test: Alkaline phosphatase inhibition assay (spectrophotometric, p-NPP substrate); assay type: biochemical; settings: Mean ± SEM, pH 9.5, 37 °C
Protocol: The inhibitory activity of calf intestinal alkaline phosphatase was evaluated using spectrophotometric assay as previously reported in our studies[55]^,[56]. In addition, Kinetic mechanism analysis was conducted to determine the mechanism of inhibition. […] The detailed procedure for alkaline phosphate inhibition assay and kinetic mechanism analysis is given in supplementary file. […]
Alkaline phosphatase inhibition assay and kinetic mechanism analysis
The reaction mixture comprised of 50 mM Tris -HCl buffer (5 mM MgCl2, 0.1 mM ZnCl2 pH 9.5), the compound (0.1 mM with final DMSO 1% (v/v) and mixture was pre -incubated for 10 min by adding 5 µL of CIALP (0.025 U/mL). Then, 10 µL of substrate (0.5 mM p-NPP (para nitrophenyl phosphate disodium salt) was added to initiate the reaction and the assay mixture was incubated again for 30 min at 37 °C. The change in absorbance of released p-nitrophenolate was monitored at 405 nm, using a 96-well microplate reader (SpectraMax ABS, USA). All the experiments were repeated three times in a triplicate manner.
The Alkaline Phosphatase activities were calculated according to the following formula: […]

[2] = molecular target: T1, calf intestinal alkaline phosphatase; test: Kinetic mechanism analysis (Lineweaver-Burk plot); assay type: biochemical; settings: for Km / Vmax: substrate para nitrophenyl phosphate disodium salt
Protocol: The inhibitory activity of calf intestinal alkaline phosphatase was evaluated using spectrophotometric assay as previously reported in our studies[55]^,[56]. In addition, Kinetic mechanism analysis was conducted to determine the mechanism of inhibition. […] The detailed procedure for alkaline phosphate inhibition assay and kinetic mechanism analysis is given in supplementary file.
According to the EI and ESI constants, respectively, it was determined if the compounds had the ability to inhibit the free enzyme and the enzyme-substrate complex. Figure 4 illustrates a succession of straight lines obtained from the Lineweaver–Burk plot of the enzyme’s kinetic studies against the substrate para nitrophenyl phosphate disodium salt at various inhibitor doses (A).
Where ODcontrol and ODsample represents the optical v densities in the absence and presence of […]
The inhibitor 6g concentrations were used 0.00, 0.169, 0.337 and 0.674 µM, Substrate p-NPP concentrations were 10, 5, 2.5, 1.25, 0.625 and 0.3125 mM. Pre-incubation time and other conditions were same as described in alkaline phosphatase inhibition assay section. Maximal initial velocities were determined from initial linear portion of absorbances up to 10 minutes after addition of enzyme at per minute’s interval. The inhibition type on the enzyme was assayed by Lineweaver-Burk plot of inverse of velocities (1/V) versus inverse of substrate concentration 1/[S] mM-1. The EI dissociation constant Ki was determined by secondary plot of 1/V versus inhibitor […]
Information Classification: General

T1 sequence (P19111 20-533): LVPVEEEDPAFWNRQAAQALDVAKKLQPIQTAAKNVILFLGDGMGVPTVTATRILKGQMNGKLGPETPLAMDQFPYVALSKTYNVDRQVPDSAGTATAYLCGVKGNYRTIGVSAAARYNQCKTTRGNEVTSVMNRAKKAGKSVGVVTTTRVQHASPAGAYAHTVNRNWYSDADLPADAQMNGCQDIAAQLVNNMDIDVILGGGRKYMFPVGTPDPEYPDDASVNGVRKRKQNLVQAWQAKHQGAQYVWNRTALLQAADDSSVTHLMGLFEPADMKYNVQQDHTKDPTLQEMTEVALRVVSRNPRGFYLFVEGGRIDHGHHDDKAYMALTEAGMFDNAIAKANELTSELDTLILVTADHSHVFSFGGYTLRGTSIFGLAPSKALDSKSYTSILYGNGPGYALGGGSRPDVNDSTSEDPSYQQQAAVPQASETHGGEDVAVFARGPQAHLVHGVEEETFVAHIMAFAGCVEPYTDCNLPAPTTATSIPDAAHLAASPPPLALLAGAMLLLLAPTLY

IC50 [1] [nM]	melting point [°C]	SMILES	also measured
7250 ± 435		CCCC(=O)/N=c1/scc(-c2ccc(Br)cc2)n1-c1cnc2ccccc2c1 [Compound 6a]	
3150 ± 251		CCCCC(=O)/N=c1/scc(-c2ccc(Br)cc2)n1-c1cnc2ccccc2c1 [Compound 6b]	
4240 ± 241	181 to 182	CCCCCC(=O)/N=c1/scc(-c2ccc(Br)cc2)n1-c1cnc2ccccc2c1 [Compound 6c, (E)-N-(4-(4-Bromophenyl)-3-(quinolin-3-yl)thiazol-2(3H)-ylidene)hexanamide]	
886 ± 74	188 to 190	CCCCCCC(=O)N=c1scc(-c2ccc(Br)cc2)n1-c1cnc2ccccc2c1 [Compound 6d]	
754 ± 55		CCCCCCCC(=O)N=c1scc(-c2ccc(Br)cc2)n1-c1cnc2ccccc2c1 [Compound 6e]	
8680 ± 908		CCCCCCCCCC(=O)/N=c1/scc(-c2ccc(Br)cc2)n1-c1cnc2ccccc2c1 [Compound 6f]	
337 ± 15	217 to 220	O=C(/N=c1/scc(-c2ccc(Br)cc2)n1-c1cnc2ccccc2c1)c1ccccc1 [Compound 6g, (E)-N-(4-(4-bromophenyl)-3-(quinolin-3-yl)thiazol-2(3H)-ylidene)benzamide]	Km ([2]; 6g concentration 0.169 µM): 310 µM; Vmax ([2]; 6g concentration 0.169 µM): 0.00204 ΔA /Min; Km ([2]; 6g concentration 0.337 µM): 310 µM; Vmax ([2]; 6g concentration 0.337 µM): 0.00175 ΔA /Min; Km ([2]; 6g concentration 0.674 µM): 310 µM; Vmax ([2]; 6g concentration 0.674 µM): 0.00133 ΔA /Min; Inhibition type ([2]; Lineweaver-Burk plot): non-competitively; also recorded: Non-Competitive; Ki ([2]; secondary plot of slope vs inhibitor concentration, read-out: Ki (EI dissociation constant)): 470 nM
6300 ± 634	103 to 105	Cc1ccc(C(=O)/N=c2/scc(-c3ccc(Br)cc3)n2-c2cnc3ccccc3c2)cc1 [Compound 6h]	
957 ± 71		O=C(/N=c1/scc(-c2ccc(Br)cc2)n1-c1cnc2ccccc2c1)c1ccc(Cl)cc1Cl [Compound 6i, N-dichlorobenzamide quinolinyl iminothiazoline]	

SMILES	IC50 [1] [nM]	melting point [°C]	also measured
O=C(/N=c1/scc(-c2ccc(Br)cc2)n1-c1cnc2ccccc2c1)c1cc([N+](=O)[O-])cc([N+](=O)[O-])c1 [Compound 6j, N-nitrobenzamide quinolinyl iminothiazoline]	509 ± 36		
